The experiment has as its target T1, Adenosine deaminase (Bos taurus, UniProt P56658).
T1 sequence (P56658 whole entry): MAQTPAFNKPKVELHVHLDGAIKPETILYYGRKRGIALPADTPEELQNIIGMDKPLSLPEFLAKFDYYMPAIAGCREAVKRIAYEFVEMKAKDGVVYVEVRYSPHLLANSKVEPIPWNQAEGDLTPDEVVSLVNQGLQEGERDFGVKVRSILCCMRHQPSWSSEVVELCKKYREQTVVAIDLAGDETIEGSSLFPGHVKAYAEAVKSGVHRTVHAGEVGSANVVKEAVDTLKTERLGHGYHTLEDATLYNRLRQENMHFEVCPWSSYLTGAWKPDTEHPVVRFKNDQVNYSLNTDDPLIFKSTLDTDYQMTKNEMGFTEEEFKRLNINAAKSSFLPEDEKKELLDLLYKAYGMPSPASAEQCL
The experiment can be described thus: Ability to inhibit the deamination of adenosine by calf intestine adenosine deaminase.

`Cc1c([C@@H](C)O)ncn1C1O[C@H](CO)[C@@H](O)[C@H]1O` (stereo partly specified): the Ki amounted to 61 µM.

For orientation: Ki means a measure of affinity in units of concentration, obtained from inhibition or displacement.

The values above are taken from ChEMBL document CHEMBL1122856, “Study on the inhibition of adenosine deaminase” (J Med Chem, 1985).
